{"source": "paper PMC6102577", "about": "“Discovery of Pyrazolo[4,3-c]quinolines Derivatives as Potential Anti-Inflammatory Agents through Inhibiting of NO Production” (Molecules : A Journal of Synthetic Chemistry and Natural …, 2018)", "key": {"[1]": {"assay": "NO-scavenging activity (sodium nitroprusside, nitrite by Griess reaction)", "conditions": "SNP 2.5 mM, compound 10 μM, light, room temperature, 60 min", "description": "NO-scavenging effects of pyrazolo[4,3-c]quinolines 2i and 2m were measured according to the reported method. Sodium nitroprusside (SNP) (2.5 mM) was incubated alone or in combination with tested compound (10 μM) or 1400W(10 μM) in light at room temperature for 60 min.\nTo understand the inhibitory effects of compounds 2i and 2m on NO production, sodium nitroprusside (SNP) was freshly prepared at […] in PBS was incubated alone or in combination with 10 µM of the different compounds. SNP is an inorganic complex where NO is found as NO^+ and light irradiation is necessary for the release of NO. Therefore, incubation mixtures were incubated in light at room temperature, and nitrite levels were determined after 60 min by Griess reaction.\nFigure 1 NO-scavenging effects of 1400W, compounds 2i and 2m. SNP solution (2.5 mM) in PBS was incubated alone or with tested compound (10 μM) or 1400W (10 μM) in the presence of light at room temperature for 60 min."}, "COX-2 protein expression": {"tested_on": "COX-2 protein expression", "assay": "LPS-inducible COX-2 protein expression in RAW 264.7 cells (western blot)", "format": "cell-based, murine", "conditions": "pretreated 2 h, LPS 0.1 μg/mL 24 h", "description": "(§1) The effects of compounds 2i and 2m on iNOS and COX-2 protein expression in LPS stimulated Raw 264.7 cell were assessed by western blot. Briefly, Raw 264.7 cells were pretreated with tested compound for 2 h before stimulation in the presence or absence of LPS (0.1 μg/mL). Cells were harvested and lysed with RIPA lysis buffer (50 mM Tris–Cl, pH 8.0, 150 mM NaCl, 0.1% SDS, 0.5% NP-40, 1% sodiumdeoxycholate, 1 mM phenylmethyl-sulfonylfluoride, 1 mM EDTA, no added proteinase) at 24 h after treatment. The total protein concentration in the cell lysates was measured according to the method described by Bradford. Equal amounts (15 μg) of protein were loaded and separated by using 8% SDS–PAGE and analyzed by western blot (ECL Amersham, Bensheim, Germany). The relative expression of proteins was quantified densitometrically using the software LabWorks 4.5 and was normalized againstβ-actin.\n(§2) Figure 4 Inhibition of COX-2 expression by compound 2i and 2m in LPS-stimulated RAW 264.7 cells. Cells (5 × 10^5 cells/well) were pretreated with the indicated concentrations of tested compounds for 2 h before incubation with 0.1 μg/mL LPS for 24 h. Cell lysates were then prepared and western blots were performed using an antibody specific for murine COX-2."}, "RAW 264.7 cells": {"tested_on": "RAW 264.7 cells", "assay": "Cell viability (XTT method) of RAW 264.7 cells", "format": "cell-based", "conditions": "compound 10 μM, 24 h, means ± S.D.", "description": "To evaluate whether the suppressive effect of compounds on NO production is related to cell viability, Raw 264.7 cells were treated with LPS for 24 h, and washed with 500 μL of phosphate buffer solution (PBS) before resuspended in 1 mL of culture medium. Cell viability tests were run in parallel with NO production assays with an initial cell density of 5 × 10^3 cells/well in the presence or absence of test compounds at 10 μM or 0.1% DMSO as control."}, "iNOS mRNA expression": {"tested_on": "iNOS mRNA expression", "assay": "LPS-induced iNOS mRNA expression in RAW 264.7 cells (RT-PCR)", "format": "cell-based", "conditions": "pretreated 2 h, LPS 0.1 μg/mL", "excerpt": "Total RNA was extracted by Trizol-Reagent (Invirogen, Carlsbad, CA, USA) according to the manufacturer’s manual. One microgram of RNA was used for the reverse transcription of first strand cDNA using the oligo dT primers. Five microliters of cDNA were used for the amplification of iNOS and GAPDH (glyceraldehyde 3-phosphate dehydrogenase) mRNA expression. The primers for rat iNOS are as follows, forward: 5′-ACTGCGTCGCTTCATTAGGT-3′ and reverse: 5′-TAGGCAAGCGCTTTACCACT-3′. The primers for rat glyceraldehydes 3-phosphate dehydrogenase are as follows, forward: 5′-ATGGCACAGTCAAGGCTGAGA-3′ reverse: 5′-AGACGCCAGTAGACTCCACGAC-3′. The amplicons were electrophoresed on a 3% agarose gel and band intensities were measured using a spectrophotometer (Thermo Fisher Scientific, Waltham, MA, USA) and normalized against GAPDH.\nFigure 3 Inhibitory effects of compound 2i and 2m on LPS-induced iNOS mRNA expression. Cells (5 × 10^5 cells/well) were pretreated with the indicated concentrations of tested compounds for 2 h before incubation with 0.1 μg/mL LPS for 9 h. Total RNA was prepared for RT-PCR analysis of iNOS mRNA expression in LPS-stimulated RAW 264.7 cells. GAPDH were used as internal controls for the RT-PCR assays3.4. Inhibition of LPS-inducible COX-2 expression."}, "iNOS protein expression": {"tested_on": "iNOS protein expression", "assay": "LPS-induced iNOS protein expression in RAW 264.7 cells (western blot)", "format": "cell-based, murine", "conditions": "pretreated 2 h, LPS 0.1 μg/mL 24 h", "description": "as §1\nas §2, with “Figure 2” for “Figure 4”, “of iNOS” for “of COX-2”, “by” for “by compound”, “murine iNOS.” for “murine COX-2.”"}, "[2]": {"tested_on": "LPS-stimulated NO production in RAW 264.7 cells", "assay": "Inhibition of LPS-induced NO production (nitrite accumulation, Griess reaction) in RAW 264.7 cells", "format": "cell-based", "conditions": "Mus musculus", "description": "Treatment of Raw 264.7 cells with LPS (0.1 μg/mL) for 24 h induced NO production which were assessed by measuring the accumulation of nitrite, a stable metabolite of NO, in the media based on Griess reaction. […] However, compound 2a was also highly cytotoxic, in which the survival rate of RAW 264.7 cells was only 9% at a drug concentration of 10 μM. […] The position of substitution play an important role in which substitution at para-position is usually more favorable than its ortho- or meta- counterpart in the inhibitory activity on the LPS-induced NO production. […] Various substituted groups have been introduced on the para-position of the phenyl ring.\nRaw 264.7 cells, purchased from Bioresource Collection and Research Center, Taiwan, were cultured in DMEM, supplemented with 5% fetal bovine serum, 100 units/mL of penicillin, 100 μg/mL of streptomycin, 2 mM L-glutamine, and 1 mM non-essential amino acids in a 10-cm plate at a density of 1 × 10^6 cells/mL, at 37 °C in a humidified atmosphere containing 5% CO2.\nNitrite was measured by adding 100 μL of the Griess reagent (1% sulfanilamide and 0.1% N-(1-naphthyl)ethylenediamine dihydrochloride in 5% phosphoric acid) to 100 μL of medium for 5 min. The optical density at 550 nm (OD550) was measured with a microplate reader. Concentrations were calculated by comparison with the OD550 of a standard solution of sodium nitrite prepared in culture medium."}}, "note": "Read-outs that look alike come from different tables or passages of the source."}
{"smiles": "Nc1n[nH]c2c1c(Nc1ccc(O)cc1)nc1ccccc12", "note": "[Compound 2i, 3-amino-4-(4-hydroxyphenylamino)-1H-pyrazolo[4,3-c]-quinoline]", "values": [{"measurement": "NO-scavenging effect (levels of nitrite from SNP)", "setting": "[1]", "result": "did not affect the levels of nitrite"}, {"measurement": "Inhibition of LPS-induced COX-2 protein expression", "setting": "COX-2 protein expression", "result": "effectively suppressed the induction of COX-2 protein expression by LPS"}, {"measurement": "Cell Survival Rate at 10 μM", "setting": "RAW 264.7 cells", "result": "87.84 ± 0.15", "unit": "%"}, {"measurement": "Inhibition of LPS-stimulated iNOS mRNA expression", "setting": "iNOS mRNA expression", "result": "inhibited the LPS-stimulated iNOS mRNA production in a dose-dependent manner"}, {"measurement": "Inhibition of LPS-induced iNOS protein expression", "setting": "iNOS protein expression", "result": "more potent inhibitory activities than 2m"}, {"measurement": "IC50", "setting": "[2]; RAW264.7, 24 h, RAW 264.7 cells, LPS 0.1 μg/mL 24 h, means ± S.D., read-out: IC50 (inhibition of LPS-induced NO production)", "result": "190 ± 50", "unit": "nM"}, {"measurement": "IC50", "setting": "[2]; RAW264.7, training dataset, negative logarithm of IC50 values, read-out: Observed pIC50 (converted)", "result": 190, "unit": "nM"}, {"measurement": "inhibition at 10 µM", "setting": "[2]; RAW264.7, RAW 264.7 cells, LPS 0.1 μg/mL 24 h, compound 10 μM, means ± S.D., read-out: Percent Inhibition of NO Production at 10 μM", "result": "102 ± 2.63", "unit": "%"}]}
